Laboratory results as given in ChEMBL document CHEMBL4507256 (2021).

Columns and labels:
[1] = target: SRSF protein kinase 3 (Homo sapiens) (UniProt Q9UPE1); details: Compound concentration 1000.0 nM
[2] = target: Mitogen-activated protein kinase kinase kinase 15 (Homo sapiens) (UniProt Q6ZN16); details: Compound concentration 1000.0 nM
[3] = test system: Receptor-type tyrosine-protein kinase FLT3 (Homo sapiens), P36888 [D835Y]; details: Compound concentration 1000.0 nM
[4] = target: TRAF2 and NCK-interacting protein kinase (Homo sapiens) (UniProt Q9UKE5); details: Compound concentration 1000.0 nM
[5] = target: Sigma intracellular receptor 2 (Homo sapiens) (UniProt Q5BJF2); details: Compound concentration 10.0 uM
[6] = target: GABA-A receptor; anion channel (Rattus norvegicus) (UniProt O09028+P15431+P18506+P18508+P19969+P20236+P23574+P23576+P28471+P28473+P30191+P62813+P63079+P63138+Q91ZM7+Q9ES14); details: Compound concentration 10.0 uM
[7] = target: 5-hydroxytryptamine receptor 1B (Homo sapiens) (UniProt P28222); details: Compound concentration 10.0 uM
[8] = target: Mitogen-activated protein kinase kinase kinase 6 (Homo sapiens) (UniProt O95382); details: Compound concentration 1000.0 nM
[9] = target: Serine/threonine-protein kinase Sgk3 (Homo sapiens) (UniProt Q96BR1); details: Compound concentration 1000.0 nM
[10] = target: Mitogen-activated protein kinase kinase kinase 7 (Homo sapiens) (UniProt O43318); details: Compound concentration 1000.0 nM
[11] = target: SRSF protein kinase 1 (Homo sapiens) (UniProt Q96SB4); details: Compound concentration 1000.0 nM
[12] = target: Serine/threonine-protein kinase B-raf (Homo sapiens) (UniProt P15056); details: Compound concentration 1000.0 nM
[13] = test system: Epidermal growth factor receptor (Homo sapiens), P00533 [UNDEFINED MUTATION]; details: Compound concentration 1000.0 nM
[14] = target: Protein kinase C iota type (Homo sapiens) (UniProt P41743); details: Compound concentration 1000.0 nM
[15] = target: Ephrin type-A receptor 2 (Homo sapiens) (UniProt P29317); details: Compound concentration 1000.0 nM
[16] = target: Serine/threonine-protein kinase PLK4 (Homo sapiens) (UniProt O00444); details: Compound concentration 1000.0 nM
[17] = target: Serine/threonine-protein kinase LATS2 (Homo sapiens) (UniProt Q9NRM7); details: Compound concentration 1000.0 nM
[18] = target: MAP/microtubule affinity-regulating kinase 3 (Homo sapiens) (UniProt P27448); details: Compound concentration 1000.0 nM
[19] = target: Sodium-dependent serotonin transporter (Homo sapiens) (UniProt P31645); details: Compound concentration 10.0 uM
[20] = test system: Receptor-type tyrosine-protein kinase FLT3 (Homo sapiens), P36888 [UNDEFINED MUTATION]; details: Compound concentration 1000.0 nM
[21] = target: Mitogen-activated protein kinase kinase kinase kinase 2 (Homo sapiens) (UniProt Q12851); details: Compound concentration 1000.0 nM
[22] = target: Epithelial discoidin domain-containing receptor 1 (Homo sapiens) (UniProt Q08345); details: Compound concentration 1000.0 nM
[23] = target: Activin receptor type-2B (Homo sapiens) (UniProt Q13705); details: Compound concentration 1000.0 nM
[24] = target: T1, 5-hydroxytryptamine receptor 3A (Homo sapiens) (UniProt P46098); details: Compound concentration 10.0 uM
T1 sequence (whole entry): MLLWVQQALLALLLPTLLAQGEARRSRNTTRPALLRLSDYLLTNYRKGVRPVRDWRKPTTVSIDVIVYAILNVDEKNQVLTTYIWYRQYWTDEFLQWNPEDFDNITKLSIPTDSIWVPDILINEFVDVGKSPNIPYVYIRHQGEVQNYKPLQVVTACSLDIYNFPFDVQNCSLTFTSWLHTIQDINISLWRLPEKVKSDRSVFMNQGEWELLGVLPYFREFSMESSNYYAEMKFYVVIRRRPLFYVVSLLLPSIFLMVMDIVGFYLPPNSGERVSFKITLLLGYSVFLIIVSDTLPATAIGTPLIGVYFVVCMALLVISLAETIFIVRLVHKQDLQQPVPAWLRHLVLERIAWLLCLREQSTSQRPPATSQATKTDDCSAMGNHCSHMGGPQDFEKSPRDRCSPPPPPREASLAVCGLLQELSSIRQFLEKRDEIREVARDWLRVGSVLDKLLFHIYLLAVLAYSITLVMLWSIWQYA

[25] = target: RAC-beta serine/threonine-protein kinase (Homo sapiens) (UniProt P31751); details: Compound concentration 1000.0 nM
[26] = test system: Phosphatidylinositol 4,5-bisphosphate 3-kinase catalytic subunit alpha isoform (Homo sapiens), P42336 [Q546K]; details: Compound concentration 1000.0 nM
[27] = test system: Tyrosine-protein kinase ABL1 (Homo sapiens), P00519 [F317L]; details: Compound concentration 1000.0 nM
[28] = test system: Mast/stem cell growth factor receptor Kit (Homo sapiens), P10721 [V559D,T670I]; details: Compound concentration 1000.0 nM
[29] = target: TGF-beta receptor type-2 (Homo sapiens) (UniProt P37173); details: Compound concentration 1000.0 nM
[30] = target: Dual specificity protein kinase CLK2 (Homo sapiens) (UniProt P49760); details: Compound concentration 1000.0 nM
[31] = target: MAP kinase-interacting serine/threonine-protein kinase 2 (Homo sapiens) (UniProt Q9HBH9); details: Compound concentration 1000.0 nM
[32] = target: Mitogen-activated protein kinase kinase kinase kinase 5 (Homo sapiens) (UniProt Q9Y4K4); details: Compound concentration 1000.0 nM
[33] = test system: Phosphatidylinositol 4,5-bisphosphate 3-kinase catalytic subunit alpha isoform (Homo sapiens), P42336 [E545K]; details: Compound concentration 1000.0 nM
[34] = test system: Leucine-rich repeat serine/threonine-protein kinase 2 (Homo sapiens), Q5S007 [G2019S]; details: Compound concentration 1000.0 nM
[35] = target: Cyclin-dependent kinase 4 (Homo sapiens) (UniProt P11802); details: Compound concentration 1000.0 nM
[36] = target: Phosphatidylinositol 5-phosphate 4-kinase type-2 beta (Homo sapiens) (UniProt P78356); details: Compound concentration 1000.0 nM

Sequence of Dual specificity protein kinase CLK2 (Homo sapiens) (P49760 whole entry, looked up): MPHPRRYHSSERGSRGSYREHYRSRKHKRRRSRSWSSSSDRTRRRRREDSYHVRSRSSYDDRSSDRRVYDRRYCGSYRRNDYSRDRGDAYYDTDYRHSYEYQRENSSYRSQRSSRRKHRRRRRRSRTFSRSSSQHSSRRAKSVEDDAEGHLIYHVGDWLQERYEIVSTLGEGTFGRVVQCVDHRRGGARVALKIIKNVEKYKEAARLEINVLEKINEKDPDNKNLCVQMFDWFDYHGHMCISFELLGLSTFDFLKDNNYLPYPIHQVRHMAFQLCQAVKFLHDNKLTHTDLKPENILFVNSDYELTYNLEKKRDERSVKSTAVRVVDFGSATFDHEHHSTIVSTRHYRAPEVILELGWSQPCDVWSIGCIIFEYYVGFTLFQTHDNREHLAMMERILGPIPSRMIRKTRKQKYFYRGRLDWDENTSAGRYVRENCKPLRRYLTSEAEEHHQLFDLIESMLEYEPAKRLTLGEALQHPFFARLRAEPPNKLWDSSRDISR
Sequence of Serine/threonine-protein kinase Sgk3 (Homo sapiens) (Q96BR1 whole entry): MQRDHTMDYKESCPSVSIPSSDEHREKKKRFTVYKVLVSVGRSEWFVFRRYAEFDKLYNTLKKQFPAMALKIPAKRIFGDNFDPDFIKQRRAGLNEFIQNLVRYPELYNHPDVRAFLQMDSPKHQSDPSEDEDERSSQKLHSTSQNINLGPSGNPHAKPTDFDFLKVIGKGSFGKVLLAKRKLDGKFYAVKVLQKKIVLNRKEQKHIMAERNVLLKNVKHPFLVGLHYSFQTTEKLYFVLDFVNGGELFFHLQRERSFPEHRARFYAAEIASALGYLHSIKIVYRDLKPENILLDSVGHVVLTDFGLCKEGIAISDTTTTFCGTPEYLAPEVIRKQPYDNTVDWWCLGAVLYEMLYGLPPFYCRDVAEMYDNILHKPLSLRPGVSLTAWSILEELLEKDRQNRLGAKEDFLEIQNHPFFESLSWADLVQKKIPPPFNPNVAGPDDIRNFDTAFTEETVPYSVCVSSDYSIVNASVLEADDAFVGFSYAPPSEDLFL
Sequence of Serine/threonine-protein kinase PLK4 (Homo sapiens) (O00444 whole entry): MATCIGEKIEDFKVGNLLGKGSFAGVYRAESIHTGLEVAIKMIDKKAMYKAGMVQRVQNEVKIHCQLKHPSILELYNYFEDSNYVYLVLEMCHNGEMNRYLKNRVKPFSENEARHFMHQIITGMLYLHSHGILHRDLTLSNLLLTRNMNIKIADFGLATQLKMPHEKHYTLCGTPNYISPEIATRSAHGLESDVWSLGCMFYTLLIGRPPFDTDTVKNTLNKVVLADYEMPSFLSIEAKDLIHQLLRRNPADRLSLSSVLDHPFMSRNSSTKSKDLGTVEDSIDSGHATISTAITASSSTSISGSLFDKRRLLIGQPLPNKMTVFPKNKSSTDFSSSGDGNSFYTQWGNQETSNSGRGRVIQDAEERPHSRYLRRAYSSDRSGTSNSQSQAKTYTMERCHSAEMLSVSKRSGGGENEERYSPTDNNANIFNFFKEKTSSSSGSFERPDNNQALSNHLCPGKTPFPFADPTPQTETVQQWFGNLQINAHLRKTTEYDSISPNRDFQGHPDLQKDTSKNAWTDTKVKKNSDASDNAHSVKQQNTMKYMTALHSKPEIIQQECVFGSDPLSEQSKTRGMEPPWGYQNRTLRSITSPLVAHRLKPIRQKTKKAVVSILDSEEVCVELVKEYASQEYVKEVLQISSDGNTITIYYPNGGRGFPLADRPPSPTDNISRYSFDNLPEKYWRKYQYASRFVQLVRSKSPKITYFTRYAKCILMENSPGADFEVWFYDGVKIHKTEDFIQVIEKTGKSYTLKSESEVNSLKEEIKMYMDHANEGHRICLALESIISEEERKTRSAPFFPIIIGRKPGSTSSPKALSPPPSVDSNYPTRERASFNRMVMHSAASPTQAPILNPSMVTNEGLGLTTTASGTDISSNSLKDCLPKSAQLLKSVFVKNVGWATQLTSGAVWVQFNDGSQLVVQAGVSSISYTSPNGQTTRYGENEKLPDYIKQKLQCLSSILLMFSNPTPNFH
Sequence of RAC-beta serine/threonine-protein kinase (Homo sapiens) (P31751 whole entry, canonical isoform): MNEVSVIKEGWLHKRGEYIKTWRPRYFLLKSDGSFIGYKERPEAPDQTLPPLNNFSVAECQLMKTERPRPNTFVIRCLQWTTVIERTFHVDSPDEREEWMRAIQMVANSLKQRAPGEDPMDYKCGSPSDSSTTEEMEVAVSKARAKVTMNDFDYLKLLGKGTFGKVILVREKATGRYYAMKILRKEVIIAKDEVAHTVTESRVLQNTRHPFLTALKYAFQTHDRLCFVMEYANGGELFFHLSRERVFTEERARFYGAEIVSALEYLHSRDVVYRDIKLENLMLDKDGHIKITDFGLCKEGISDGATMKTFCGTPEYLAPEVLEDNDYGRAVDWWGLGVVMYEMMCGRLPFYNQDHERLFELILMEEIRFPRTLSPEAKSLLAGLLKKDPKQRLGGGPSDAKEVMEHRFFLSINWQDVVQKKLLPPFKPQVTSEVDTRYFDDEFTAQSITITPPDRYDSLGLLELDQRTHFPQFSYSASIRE
Sequence of SRSF protein kinase 3 (Homo sapiens) (Q9UPE1 whole entry): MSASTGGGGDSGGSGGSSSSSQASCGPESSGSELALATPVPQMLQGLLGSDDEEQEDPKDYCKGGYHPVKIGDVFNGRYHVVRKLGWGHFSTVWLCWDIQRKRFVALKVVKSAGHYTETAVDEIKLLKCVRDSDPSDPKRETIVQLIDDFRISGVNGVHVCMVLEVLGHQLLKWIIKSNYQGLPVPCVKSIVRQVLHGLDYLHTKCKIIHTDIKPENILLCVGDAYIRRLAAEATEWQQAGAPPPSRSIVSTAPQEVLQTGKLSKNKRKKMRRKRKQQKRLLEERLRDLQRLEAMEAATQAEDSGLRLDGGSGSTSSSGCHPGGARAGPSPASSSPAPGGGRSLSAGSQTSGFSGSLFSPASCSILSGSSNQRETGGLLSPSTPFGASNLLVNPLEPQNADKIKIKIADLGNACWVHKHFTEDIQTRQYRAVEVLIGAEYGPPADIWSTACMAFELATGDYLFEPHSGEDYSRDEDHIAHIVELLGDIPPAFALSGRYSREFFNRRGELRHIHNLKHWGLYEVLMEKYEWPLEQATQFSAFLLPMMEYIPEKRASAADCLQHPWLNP
Sequence of Activin receptor type-2B (Homo sapiens) (Q13705 whole entry): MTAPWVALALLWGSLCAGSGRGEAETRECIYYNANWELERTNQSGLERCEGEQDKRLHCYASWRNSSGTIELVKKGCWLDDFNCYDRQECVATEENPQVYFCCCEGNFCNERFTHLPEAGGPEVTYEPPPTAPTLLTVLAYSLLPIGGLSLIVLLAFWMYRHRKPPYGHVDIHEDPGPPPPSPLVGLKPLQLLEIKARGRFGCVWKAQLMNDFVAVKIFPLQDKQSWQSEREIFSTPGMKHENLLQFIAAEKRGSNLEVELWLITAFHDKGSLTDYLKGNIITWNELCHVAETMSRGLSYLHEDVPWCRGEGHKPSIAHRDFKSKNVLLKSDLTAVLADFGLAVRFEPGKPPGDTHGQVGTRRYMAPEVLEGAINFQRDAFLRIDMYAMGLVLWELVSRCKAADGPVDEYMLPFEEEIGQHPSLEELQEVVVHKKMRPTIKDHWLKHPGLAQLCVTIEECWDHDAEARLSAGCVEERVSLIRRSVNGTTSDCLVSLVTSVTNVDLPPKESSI
Sequence of Sigma intracellular receptor 2 (Homo sapiens) (Q5BJF2 whole entry): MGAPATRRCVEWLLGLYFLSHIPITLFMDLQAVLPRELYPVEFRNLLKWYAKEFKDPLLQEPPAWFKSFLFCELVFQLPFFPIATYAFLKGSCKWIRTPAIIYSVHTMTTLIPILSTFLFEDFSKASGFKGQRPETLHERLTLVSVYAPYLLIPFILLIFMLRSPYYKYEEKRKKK
Sequence of Ephrin type-A receptor 2 (Homo sapiens) (P29317 whole entry): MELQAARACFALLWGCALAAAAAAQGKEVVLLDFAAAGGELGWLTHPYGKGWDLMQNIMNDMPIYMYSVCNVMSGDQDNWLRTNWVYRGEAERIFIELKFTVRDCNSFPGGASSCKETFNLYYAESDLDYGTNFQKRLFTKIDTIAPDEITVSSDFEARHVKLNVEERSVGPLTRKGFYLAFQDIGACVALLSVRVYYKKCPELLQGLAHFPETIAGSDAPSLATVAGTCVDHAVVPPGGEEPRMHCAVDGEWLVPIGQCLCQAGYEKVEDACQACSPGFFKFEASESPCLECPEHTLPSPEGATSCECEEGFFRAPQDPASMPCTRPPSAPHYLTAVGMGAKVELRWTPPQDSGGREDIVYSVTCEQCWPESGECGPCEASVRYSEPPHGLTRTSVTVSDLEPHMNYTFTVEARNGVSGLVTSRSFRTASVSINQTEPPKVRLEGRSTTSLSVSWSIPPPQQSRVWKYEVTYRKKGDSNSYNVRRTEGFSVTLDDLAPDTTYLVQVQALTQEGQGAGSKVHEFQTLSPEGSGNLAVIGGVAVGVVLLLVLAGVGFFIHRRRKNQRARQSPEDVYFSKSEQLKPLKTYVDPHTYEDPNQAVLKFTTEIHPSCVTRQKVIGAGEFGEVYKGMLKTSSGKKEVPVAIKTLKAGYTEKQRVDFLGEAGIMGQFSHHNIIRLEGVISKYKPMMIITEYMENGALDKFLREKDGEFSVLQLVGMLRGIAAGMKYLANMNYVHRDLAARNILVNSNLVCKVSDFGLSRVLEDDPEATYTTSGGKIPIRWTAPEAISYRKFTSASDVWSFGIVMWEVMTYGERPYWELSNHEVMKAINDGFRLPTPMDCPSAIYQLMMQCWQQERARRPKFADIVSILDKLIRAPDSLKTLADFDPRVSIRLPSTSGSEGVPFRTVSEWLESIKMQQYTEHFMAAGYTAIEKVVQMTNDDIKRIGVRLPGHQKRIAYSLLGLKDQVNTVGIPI
Sequence of Cyclin-dependent kinase 4 (Homo sapiens) (P11802 whole entry): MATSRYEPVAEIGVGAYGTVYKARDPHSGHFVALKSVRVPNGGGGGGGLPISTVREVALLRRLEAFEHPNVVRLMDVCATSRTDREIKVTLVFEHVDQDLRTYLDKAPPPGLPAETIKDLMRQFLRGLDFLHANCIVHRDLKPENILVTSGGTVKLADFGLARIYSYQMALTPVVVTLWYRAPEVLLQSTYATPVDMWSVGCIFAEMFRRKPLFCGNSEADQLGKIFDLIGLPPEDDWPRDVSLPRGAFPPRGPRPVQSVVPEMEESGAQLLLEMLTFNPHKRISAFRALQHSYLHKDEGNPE

Structure (SMILES) | residual activity [1] | residual activity [2] | residual activity [3] | residual activity [4] | inhibition [5] | inhibition [6] | inhibition [7] | residual activity [8] | residual activity [9] | residual activity [10] | residual activity [11] | residual activity [12] | residual activity [13] | residual activity [14] | residual activity [15] | residual activity [16] | residual activity [17] | residual activity [18] | inhibition [19] | residual activity [20] | further results
CCC(=N\O)/C(C)=C/c1ccc(F)c(C)c1 [A-226] | 100% | 69% | 100% | 96% | 33.4% | 20.3% | -1.04% | 100% | 100% | 99% | 100% | 79% | 100% | 99% | 89% | 100% | 75% | 100% | 8.28% | 100% | residual activity [21]: 100%; residual activity [22]: 91%; residual activity [23]: 100%; inhibition [24]: 0.44%; residual activity [25]: 84%; residual activity [26]: 46%; residual activity [27]: 100%; residual activity [28]: 100%; residual activity [29]: 97%; residual activity [30]: 88%; residual activity [31]: 100%; residual activity [32]: 100%; residual activity [33]: 100%; residual activity [34]: 100%; residual activity [35]: 100%; residual activity [36]: 74%
CCC(=N\O)/C(C)=C/c1ccc(F)cc1 [A-079] | 91% | 100% | 91% | 93% | 22.6% | 21.5% | 7.88% | 63% | 81% | 81% | 100% | 87% | 69% | 74% | 84% | 75% | 100% | 86% | 13% | 94% | residual activity [21]: 97%; residual activity [22]: 89%; residual activity [23]: 91%; inhibition [24]: -4.62%; residual activity [25]: 88%; residual activity [26]: 91%; residual activity [27]: 81%; residual activity [28]: 95%; residual activity [29]: 74%; residual activity [30]: 78%; residual activity [31]: 100%; residual activity [32]: 80%; residual activity [33]: 100%; residual activity [34]: 100%; residual activity [35]: 78%; residual activity [36]: 91%
